Test system: primary rat mixed cortical cells
Test: In vitro myelination assay (MBP positive myelin strands, fold myelin pixels above background)
Assay type: cell-based
Settings: Rattus norvegicus, read-out: Fold myelin pixels above background relative to baseline of no added compound; for fold induction at 1 µM: 1.0 μM compound; for fold induction at 10 µM: 10.0 μM compound
Summary of the method: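 P1 rat cortical cells (neurons, OPCs, oligodendrocytes, astrocytes, microglia) were cultured 14 days at 37 °C with compound, with half-medium changes containing 1× compound on days 6 and 10. Fixed cells were immunostained for MBP and imaged at 10×. Total MBP myelin pixels per well were expressed as fold above no-compound baseline at 1.0 μM and 10.0 μM.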

SMILES | fold induction at 1 µM | fold induction at 10 µM
Cc1cc(Nc2ncn(-c3cc(F)cc(F)c3)n2)cc(N2CCOC(CN(C)C)C2)c1 (centres unmarked) [Compound 1018, 1-(3,5-difluorophenyl)-N-[3-[2-[(dimethylamino)methyl]morpholin-4-yl]-5-methyl-phenyl]-1,2,4-triazol-3-amine] | 10 to 100 | ≤ 1
Cc1cc(Nc2ncn(-c3cc(F)cc(F)c3)n2)cc(N2CCC(OC(C)C)CC2)c1 [Compound 1019, 1-(3,5-difluorophenyl)-N-[3-(4-isopropoxy-1-piperidyl)-5-methyl-phenyl]-1,2,4-triazol-3-amine] | 1 to 10 | 10 to 100
Cc1cc(NCC2(N3CCCC3)COC2)cc(Nc2ncn(-c3cc(F)cc(F)c3)n2)c1 [Compound 1020, N1-[1-(3,5-difluorophenyl)-1,2,4-triazol-3-yl]-5-methyl-N3-[(3-pyrrolidin-1-yloxetan-3-yl)methyl]benzene-1,3-diamine] | 10 to 100 | 1 to 10
Cc1cc(NC2CCOCC2)cc(Nc2ncn(-c3cc(F)cc(F)c3)n2)c1F [Compound 1021, N3-[1-(3,5-difluorophenyl)-1,2,4-triazol-3-yl]-4-fluoro-5-methyl-N1-tetrahydropyran-4-yl-benzene-1,3-diamine] | 1 to 10 | ≤ 1
Cc1cc(Nc2ncn(-c3cccnc3)n2)c(F)c(N2CCN(C3COC3)CC2)c1 [Compound 1022, N-[2-fluoro-5-methyl-3-[4-(oxetan-3-yl)piperazin-1-yl]phenyl]-1-(3-pyridyl)-1,2,4-triazol-3-amine] | 1 to 10 | 10 to 100
Cc1cc(Nc2ncn(-c3cc(F)cc(F)c3)n2)cc(N2CCC(N3CCOC(C)C3)CC2)c1 (centres unmarked) [Compound 1023, 1-(3,5-difluorophenyl)-N-[3-methyl-5-[4-(2-methylmorpholin-4-yl)-1-piperidyl]phenyl]-1,2,4-triazol-3-amine] | 1 to 10 | 10 to 100
Cc1cc(Nc2ncn(-c3cc(F)cc(F)c3)n2)cc(N2CCN(CC(C)(C)O)CC2C)c1 (centres unmarked) [Compound 1024, 1-[4-[3-[[1-(3,5-difluorophenyl)-1,2,4-triazol-3-yl]amino]-5-methyl-phenyl]-3-methyl-piperazin-1-yl]-2-methyl-propan-2-ol] | 10 to 100 | ≤ 1
CCN1CCN(C2CCN(c3cc(C)cc(Nc4ncn(-c5cc(F)cc(F)c5)n4)c3)CC2)CC1 [Compound 1025, 1-(3,5-difluorophenyl)-N-[3-[4-(4-ethylpiperazin-1-yl)-1-piperidyl]-5-methyl-phenyl]-1,2,4-triazol-3-amine] | 1 to 10 | 10 to 100
Cc1cc(Nc2ncn(-c3cc(F)cc(F)c3)n2)cc(N2CCN(C)C(CCO)C2)c1 (centres unmarked) [Compound 1026, 2-[4-[3-[[1-(3,5-difluorophenyl)-1,2,4-triazol-3-yl]amino]-5-methyl-phenyl]-1-methyl-piperazin-2-yl]ethanol] | 1 to 10 | 1 to 10
Cc1cc(Nc2ncn(-c3cc(F)cc(F)c3)n2)cc(N2CCOC(CN3CCCC3)C2)c1 (centres unmarked) [Compound 1027, 1-(3,5-difluorophenyl)-N-[3-methyl-5-[2-(pyrrolidin-1-ylmethyl)morpholin-4-yl]phenyl]-1,2,4-triazol-3-amine] | 1 to 10 | ≤ 1
COC1(CNc2cc(C)cc(Nc3ncn(-c4cc(F)cc(F)c4)n3)c2)CCC1 [Compound 1029, N1-[1-(3,5-difluorophenyl)-1,2,4-triazol-3-yl]-N3-[(1-methoxycyclobutyl)methyl]-5-methyl-benzene-1,3-diamine] | 10 to 100 | 10 to 100
COCCC1CN(c2cc(C)cc(Nc3ncn(-c4cc(F)cc(F)c4)n3)c2)CCO1 (centres unmarked) [Compound 1030, 1-(3,5-difluorophenyl)-N-[3-[2-(2-methoxyethyl)morpholin-4-yl]-5-methyl-phenyl]-1,2,4-triazol-3-amine] | 10 to 100 | 1 to 10
CC(=O)N1CC(CNc2cc(C)cc(Nc3ncn(-c4cc(F)cc(F)c4)n3)c2)C1 [Compound 1031, 1-[3-[[3-[[1-(3,5-difluorophenyl)-1,2,4-triazol-3-yl]amino]-5-methyl-anilino]methyl]azetidin-1-yl]ethanone] | 10 to 100 | ≤ 1
[2H]C1([2H])N(c2cc(Nc3ncn(-c4cc(F)cc(F)c4)n3)cc(C(F)(F)F)c2)C([2H])([2H])C([2H])([2H])C([2H])([2H])C1([2H])[2H] [Compound 1032, N-[3-(2,2,3,3,4,4,5,5,6,6-decadeuterio-1-piperidyl)-5-(trifluoromethyl)phenyl]-1-(3,5-difluorophenyl)-1,2,4-triazol-3-amine] | 10 to 100 | 1 to 10
Cc1cc(Nc2ncn(-c3cc(F)cc(F)c3)n2)cc(N2CCN(CCOCCO)CC2)c1 [Compound 1033, 2-[2-[4-[3-[[1-(3,5-difluorophenyl)-1,2,4-triazol-3-yl]amino]-5-methyl-phenyl]piperazin-1-yl]ethoxy]ethanol] | 1 to 10 | ≤ 1
Cc1cc(Nc2ncn(-c3ccccc3)n2)cc(N2CC3(C2)CN(C(C)C)C3)c1 [Compound 1034, N-[3-(2-isopropyl-2,6-diazaspiro[3.3]heptan-6-yl)-5-methyl-phenyl]-1-phenyl-1,2,4-triazol-3-amine] | 10 to 100 | ≤ 1
Cc1cc(Nc2ncn(-c3cc(F)cc(F)c3)n2)cc(N2CCOC3(CC3)C2)c1 [Compound 1035, 1-(3,5-difluorophenyl)-N-[3-methyl-5-(4-oxa-7-azaspiro[2.5]octan-7-yl)phenyl]-1,2,4-triazol-3-amine] | 1 to 10 | 1 to 10
Cc1cc(Nc2ncn(-c3cc(F)cc(F)c3)n2)cc(N2CCN(CCO)CC2)c1 [Compound 1036, 2-[4-[3-[[1-(3,5-difluorophenyl)-1,2,4-triazol-3-yl]amino]-5-methyl-phenyl]piperazin-1-yl]ethanol] | ≤ 1 | ≤ 1
Cc1cc(Nc2ncn(-c3cc(F)cc(F)c3)n2)cc(N2CC(S(C)(=O)=O)C2)c1 [Compound 1037, 1-(3,5-difluorophenyl)-N-[3-methyl-5-(3-methylsulfonylazetidin-1-yl)phenyl]-1,2,4-triazol-3-amine] | 10 to 100 | ≤ 1
Cc1cc(Nc2ncn(-c3cc(F)cc(F)c3)n2)cc(N2CCC(N3CCCC3)CC2)c1 [Compound 1038, 1-(3,5-difluorophenyl)-N-[3-methyl-5-(4-pyrrolidin-1-yl-1-piperidyl)phenyl]-1,2,4-triazol-3-amine] | 1 to 10 | 10 to 100
[2H]C1(N2CCN(c3cc(C)cc(Nc4ncn(-c5ccccc5)n4)c3)CC2)CCOC1 (centres unmarked) [Compound 1039, N-[3-[4-(3-deuteriotetrahydrofuran-3-yl)piperazin-1-yl]-5-methyl-phenyl]-1-phenyl-1,2,4-triazol-3-amine] | 10 to 100 | ≤ 1
Cc1cc(Nc2ncn(-c3cc(F)cc(F)c3)n2)cc(N2CCC(N3CCC(O)C3)C2)c1 (centres unmarked) [Compound 1040, 1-[1-[3-[[1-(3,5-difluorophenyl)-1,2,4-triazol-3-yl]amino]-5-methyl-phenyl]pyrrolidin-3-yl]pyrrolidin-3-ol] | 10 to 100 | ≤ 1
[2H]C1([2H])N(C(=O)C2CC2)C([2H])([2H])C([2H])([2H])N(c2cc(Nc3ncn(-c4cc(F)cc(F)c4)n3)cc(C(F)F)c2)C1([2H])[2H] [Compound 1041, cyclopropyl-[2,2,3,3,5,5,6,6-octadeuterio-4-[3-(difluoromethyl)-5-[[1-(3,5-difluorophenyl)-1,2,4-triazol-3-yl]amino]phenyl]piperazin-1-yl]methanone] | 1 to 10 | 1 to 10
[2H]C1([2H])N(c2cc(C)cc(Nc3ncn(-c4cc(F)cc(F)c4)n3)c2)C([2H])([2H])C([2H])([2H])N(C2CCOC2)C1([2H])[2H] (centres unmarked) [Compound 1042, 1-(3,5-difluorophenyl)-N-[3-methyl-5-(2,2,3,3,5,5,6,6-octadeuterio-4-tetrahydrofuran-3-yl-piperazin-1-yl)phenyl]-1,2,4-triazol-3-amine] | 10 to 100 | ≤ 1
Cc1cc(Nc2ncn(-c3cc(F)cc(F)c3)n2)c(F)c(N2CCN(CCO)CC2)c1 [Compound 1043, 2-[4-[3-[[1-(3,5-difluorophenyl)-1,2,4-triazol-3-yl]amino]-2-fluoro-5-methyl-phenyl]piperazin-1-yl]ethanol] | 10 to 100 | ≤ 1
[2H]C1([2H])N(C(C)=O)C([2H])([2H])C([2H])([2H])N(c2cc(C)cc(Nc3ncn(-c4cc(F)cc(F)c4)n3)c2)C1([2H])[2H] [Compound 1044, 1-[2,2,3,3,5,5,6,6-octadeuterio-4-[3-[[1-(3,5-difluorophenyl)-1,2,4-triazol-3-yl]amino]-5-methyl-phenyl]piperazin-1-yl]ethanone] | 1 to 10 | 1 to 10
Cc1cc(Nc2ncn(-c3cc(F)cc(F)c3)n2)cc(NC2CCN(CC3CCOC3)CC2)c1 (centres unmarked) [Compound 1045, N3-[1-(3,5-difluorophenyl)-1,2,4-triazol-3-yl]-5-methyl-N1-[1-(tetrahydrofuran-3-ylmethyl)-4-piperidyl]benzene-1,3-diamine] | 1 to 10 | ≤ 1
Cc1cc(NCC2CCN(C3CCOCC3)CC2)cc(Nc2ncn(-c3cc(F)cc(F)c3)n2)c1 [Compound 1046, N1-[1-(3,5-difluorophenyl)-1,2,4-triazol-3-yl]-5-methyl-N3-[(1-tetrahydropyran-4-yl-4-piperidyl)methyl]benzene-1,3-diamine] | 1 to 10 | ≤ 1

Reference: patent publication US10766869B2, “Triazoles for the treatment of demyelinating dieases” (Vertex Pharmaceuticals Incorporated, priority 2015, dated 2020)
